US20240352419A1, “METHODS AND COMPOSITIONS FOR DIFFERENTIATION OF PLURIPOTENT STEM CELLS AND DERIVED HEMATOPOIETIC LINEAGE CELLS” (NUWACELL BIOTECHNOLOGIES CO., LTD., priority 2022, published 2024)

Key:
Format in all cases: cell-based
K562 cells = assay: Cytotoxicity of Stage 3 iNK cells by CFSE/7AAD assay; conditions: added to Stage 3 medium (IL-10 20 ng/mL, IL-18 50 ng/mL), E:T 3:1, 4 hr, FIG. 13A
Description: hiPSCs were prepared as described in CN108373998B. On Day −1, Embryoid body (EB) formation (Stage 1-1) was carried out by placing individualized hiPSCs in E8 medium containing 10 μM Blebbistatin in T25 flasks on a bellydancer and culture overnight. On Day 0, lateral mesoderm differentiation (Stage 1-2) was initiated by changing the medium to a Stage 1-2 differentiation medium comprising IF-4 basal medium and supplemented with BMP4 (25 ng/mL), VEGF (15 ng/ml), bFGF (0.5 ng/mL) and CHIR99021 (4 μM) for 2 days. On Day 2, lateral mesoderm differentiation (Stage 1-3) continued for 1 day in a Stage 1-3 differentiation medium comprising IF-4 basal medium and supplemented with BMP4 (25 ng/mL), VEGF (50 ng/mL) and bFGF (0.5 ng/mL) and CHIR99021 (1 μM). On Day 3, HE specification (Stage 1-4) was initiated by adding a Stage 1-4 differentiation medium comprising IF-4 basal medium and supplemented with VEGF (15 ng/ml), bFGF (5 ng/ml), XAV939 (5 μM) for 1 day. […] On Day 11 of co-culture, iNK cells were collected and stained with CD56-PE antibody (BD, #555516), the percentage of CD56+ cells was analyzed by flow cytometry. The cytotoxicity of Stage 3 iNK cells towards K562 cells was detected by CFSE/7AAD assay after 4 hr co-culture at E:T of 3:1.

PBNK cells = assay: Expansion of PBNK cells from PBMCs (expansion fold, CD56+CD3- percentage by flow cytometry); conditions: effect of heparin sodium concentration (0-50 μg/mL) in NKSFM
Description: The effect of the concentration of nicotinamide (NAM) in an exemplary basal medium on NK cell expansion was evaluated. The above basal medium comprised the following components: IMDM (Sigma):RPMI1640 (Gibco) (50%: 50%); about 1.3 ng/ml of Cupric sulfate, about 3 μM of Ferric sulfate, about 0.432 μg/mL of Zinc sulfate, about 1˜50 ng/ml of Na Selenite, about 110 μg/mL of Sodium pyruvate, 0.1˜20 μg/mL of Insulin, 1˜200 μg/mL of Transferrin, about 1% (v/v) of GlutaMAX-1, 0.1˜20 mg/mL of HSA, 1˜400 μM of MTG, about 80 μg/mL of Ascorbic acid and indicated concentration of NAM. Peripheral blood mononuclear cells (PBMCs) were isolated by density gradient centrifugation using Ficoll-Paque. On Day 0, PBMCs were plated at 1×10^6 cells/mL in a 48-well-plate in the basal medium with NAM (either 0, 1, 2, 2.5, 3, 3.5, 4, or 5 mM) and stimulated with the following reagents for 3 days: immobilized CD16 antibody (Biolegend, 302014) (135 ng/cm^2), IL-2 (700 IU/mL), IL-15 (10 ng/ml) and OK432 (0.01 KE/mL). On day 3, cells were re-suspended in the above basal medium supplemented with IL-2 (700 IU/mL) and IL-15 (10 ng/mL). Fresh medium was added every other day to maintain cell density below 2×10^6 cells/mL. Cells were collect on Day 14 and stained with CD56-PE and CD3-PerCP-Cy5.5 antibodies, the percentage of CD56^+CD3^− NK cells was analyzed by flow cytometry.
(§1) The effect of heparin sodium concentration in an exemplary NKSFM on NK cell expansion was also evaluated. NKSFM comprised the following components: IMDM (Sigma):DMEM/F12 (Gibco) (50%: 50%); about 20 μM of Ethanolamine, about 1˜50 ng/ml of Na Selenite, about 110 μg/mL of Sodium pyruvate, 0.1˜20 μg/mL of Insulin, 1˜200 μg/mL of Transferrin, about 1% (v/v) of GlutaMAX-1, 0.1˜20 mg/mL of Human serum albumin, 1˜400 μM of MTG, about 80 μg/mL of Ascorbic acid, about 1˜5 mM of NAM, 4% (v/v) of PLT, and indicated concentration of heparin sodium. PBMCs were isolated by density gradient centrifugation using Ficoll-Paque. On Day 0, PBMCs were plated at 1×10^6 cells/mL in a 48-well-plate in NKSFM with heparin sodium (0, 0.5, 1, 3, 10, 30, or 50 μg/mL) and stimulated with the following reagents for 3 days: immobilized CD16 antibody (Biolegend, 302014) (135 ng/cm^2), OK432 (0.01 KE/mL), NeoIL-2 (50 ng/ml), IL-12 (10 ng/mL), IL-18 (50 ng/mL). […] Cells were collect on Day 13 and stained with CD56-PE and CD3-PerCP-Cy5.5 antibodies, the percentage of CD56^+CD3^− NK cells was analyzed by flow cytometry. The specific lysis of K562 tumor cells by NK cells were assessed by CFSE/7-AAD cytotoxicity assay. […] After incubation for 4 hours, cells were stained with 7-AAD (Live/dead staining) and analyzed with flow cytometry.
The effect of PLT percentage (v/v) in an exemplary NKSFM on NK cell expansion was evaluated. […]

K562 tumor cells = assay: CFSE/7-AAD cytotoxicity assay of expanded NK cells; conditions: effect of heparin sodium concentration in NKSFM, E:T 3:1, 4 hours, FIG. 3C
Description: as §1, with “Ficoll-Paque.” for “Ficoll-Paque. On Day 0, PBMCs were plated at 1×10^6 cells/mL in a 48-well-plate in NKSFM with heparin sodium (0, 0.5, 1, 3, 10, 30, or 50 μg/mL) and stimulated with the following reagents for 3 days: immobilized CD16 antibody (Biolegend, 302014) (135 ng/cm^2), OK432 (0.01 KE/mL), NeoIL-2 (50 ng/ml), IL-12 (10 ng/mL), IL-18 (50 ng/mL).”
The effect of PLT percentage (v/v) in an exemplary NKSFM on NK cell expansion was evaluated. […] Cells were collect on Day 14 and stained with CD56-PE and CD3-PerCP-Cy5.5 antibodies, the percentage of CD56^+CD3^− NK cells was analyzed by flow cytometry. The specific lysis of K562 tumor cells by NK cells were assessed by CFSE/7-AAD cytotoxicity assay. […]

Substance	cytotoxicity of iNK cells (K562 cells)	NK cell expansion fold (PBNK cells; Day 13, FIG. 3A)	percentage of CD56+CD3− NK cells (PBNK cells; Day 13, FIG. 3B)	specific lysis of K562 tumor cells (K562 tumor cells)
IL-10: interleukin added to Stage 3 expansion and maturation medium	significantly improve	–	–	–
heparin sodium	–	significantly influences	minimal effect	minimal effect
